Like-named read-outs stand apart in the source and are kept apart here.
Columns and labels:
NCI-60 cell lines = assay: NCI-60 cytotoxicity, mean graph midpoint; settings: read-out: GI50 (μM) MGM; mean graph midpoint of all cell lines, 48 h, sulforhodamine B
HCT116 [1] = assay: MTT cytotoxicity assay, HCT116; assay type: cell-based, human
Method: (§1) Cytotoxicity Assays. […] The cells were incubated with the tested compounds for 72 hours in a five-dose assay ranging from 0.01 to 100 μM concentration. After drug treatments, MTT solution was added to test the percentage growth of tumor cells.
(§2) The compounds were incubated with the cells for 72 hours in a five-dose assay ranging from 0.01 to 100 μM concentration. At the end of the incubation, the MTT solution was added to test the percentage growth of tumor cells.
(§3) For the drug treatment experiments, the cancer cells were treated with the compounds (predissolved in DMSO) at a five-dose assay ranging from 0.01 to 100 μM concentration. […] After 4 h incubation, the formazan crystal formed in the well was dissolved with […] of DMSO for optical density reading at 570 nm. The GI50 value was calculated by nonlinear regression analysis (GraphPad Prism).

Top1 = molecular target: T1, Top1 (Homo sapiens, UniProt P11387); assay: Top1-mediated DNA cleavage assay; assay type: biochemical; settings: graded relative to CPT at 1 μM, Table 7
T1 sequence (P11387 1-765): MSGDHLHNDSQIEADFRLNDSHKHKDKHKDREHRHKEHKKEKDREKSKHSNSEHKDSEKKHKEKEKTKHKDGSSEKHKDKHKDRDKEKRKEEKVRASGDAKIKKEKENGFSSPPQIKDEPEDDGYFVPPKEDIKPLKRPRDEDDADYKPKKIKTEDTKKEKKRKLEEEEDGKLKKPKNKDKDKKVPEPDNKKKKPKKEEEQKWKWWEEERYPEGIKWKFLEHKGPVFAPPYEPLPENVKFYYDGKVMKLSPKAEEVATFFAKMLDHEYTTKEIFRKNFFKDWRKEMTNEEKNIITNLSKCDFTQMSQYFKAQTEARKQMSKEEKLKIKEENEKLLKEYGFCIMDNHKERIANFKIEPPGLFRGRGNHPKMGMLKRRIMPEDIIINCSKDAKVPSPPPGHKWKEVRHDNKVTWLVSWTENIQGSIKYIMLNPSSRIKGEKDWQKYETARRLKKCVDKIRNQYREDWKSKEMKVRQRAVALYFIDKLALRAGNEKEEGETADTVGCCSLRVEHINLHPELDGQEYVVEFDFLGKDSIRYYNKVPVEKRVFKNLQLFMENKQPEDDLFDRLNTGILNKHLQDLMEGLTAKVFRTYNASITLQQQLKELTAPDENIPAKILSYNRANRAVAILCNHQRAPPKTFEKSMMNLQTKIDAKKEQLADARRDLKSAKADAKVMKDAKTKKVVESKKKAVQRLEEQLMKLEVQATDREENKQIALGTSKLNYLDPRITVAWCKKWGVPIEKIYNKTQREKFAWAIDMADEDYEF

A549 = assay: MTT cytotoxicity assay, A549; assay type: cell-based, human; settings: 72 h, Table 7, read-out: GI50 ± SC (μM) A-49
Method: as §1, §2, §3

DU145 = assay: MTT cytotoxicity assay, DU145; assay type: cell-based, human
Method: as §1, §2, §3

MCF7 = assay: NCI-60 cytotoxicity; assay type: cell-based, human; settings: NCI-60 Breast Cancer, 48 h
Method: (§4) Cell growth inhibition (GI50 in Table 3) was calculated relative to cells without compound treatment and the time zero control.
(§5) Regarding Table 8, according to the NCI established procedures, the cells were incubated with 67 or 50 for 48 hours and stained with sulforhodamine B dye.

BT-549 = assay: NCI-60 cytotoxicity; assay type: cell-based, human; settings: NCI-60 Breast Cancer, 48 h
Method: as §4, §5

HOP-92 = assay: NCI-60 cytotoxicity; assay type: cell-based, human; settings: NCI-60 Non-Small Cell Lung Cancer, 48 h
Method: as §4, §5

SK-MEL-5 = assay: NCI-60 cytotoxicity; assay type: cell-based, human; settings: NCI-60 Melanoma, 48 h
Method: as §4, §5

ACHN = assay: NCI-60 cytotoxicity; assay type: cell-based, human; settings: NCI-60 Renal Cancer, 48 h
Method: as §4, §5

OVCAR-8 = assay: NCI-60 cytotoxicity; assay type: cell-based, human; settings: NCI-60 Ovarian Cancer, 48 h
Method: as §4, §5

CCRF-CEM = assay: NCI-60 cytotoxicity; assay type: cell-based, human; settings: NCI-60 Leukemia, 48 h
Method: as §4, §5

HCT116 [2] = assay: NCI-60 cytotoxicity; assay type: cell-based, human; settings: NCI-60 Colon Cancer, 48 h
Method: as §4, §5

OVCAR-3 = assay: NCI-60 cytotoxicity; assay type: cell-based, human; settings: NCI-60 Ovarian Cancer, 48 h
Method: as §4, §5

OVCAR-5 = assay: NCI-60 cytotoxicity; assay type: cell-based, human; settings: NCI-60 Ovarian Cancer, 48 h
Method: as §4, §5

UO-31 = assay: NCI-60 cytotoxicity; assay type: cell-based, human; settings: NCI-60 Renal Cancer, 48 h
Method: as §4, §5

M14 = assay: NCI-60 cytotoxicity; assay type: cell-based, human; settings: NCI-60 Melanoma, 48 h
Method: as §4, §5

EKVX = assay: NCI-60 cytotoxicity; assay type: cell-based, human; settings: NCI-60 Non-Small Cell Lung Cancer, 48 h
Method: as §4, §5

SW-620 = assay: NCI-60 cytotoxicity; assay type: cell-based, human; settings: NCI-60 Colon Cancer, 48 h
Method: as §4, §5

MOLT-4 = assay: NCI-60 cytotoxicity; assay type: cell-based, human; settings: NCI-60 Leukemia, 48 h
Method: as §4, §5

RXF 393 = assay: NCI-60 cytotoxicity; assay type: cell-based, human; settings: NCI-60 Renal Cancer, 48 h
Method: as §4, §5

NCI-H322M = assay: NCI-60 cytotoxicity; assay type: cell-based, human; settings: NCI-60 Non-Small Cell Lung Cancer, 48 h
Method: as §4, §5

NCI-H460 = assay: NCI-60 cytotoxicity; assay type: cell-based, human; settings: NCI-60 Non-Small Cell Lung Cancer, 48 h
Method: as §4, §5

HOP-62 = assay: NCI-60 cytotoxicity; assay type: cell-based, human; settings: NCI-60 Non-Small Cell Lung Cancer, 48 h
Method: as §4, §5

A549/ATCC = assay: NCI-60 cytotoxicity; assay type: cell-based, human; settings: NCI-60 Non-Small Cell Lung Cancer, 48 h
Method: as §4, §5

HCC-2998 = assay: NCI-60 cytotoxicity; assay type: cell-based, human; settings: NCI-60 Colon Cancer, 48 h
Method: as §4, §5

MCF-7 = assay: MTT cytotoxicity assay, MCF-7; assay type: cell-based, human
Method: as §2, §3

[3] = 72 h, Table 7, read-out: GI50 ± SC (μM) HCT116
[4] = 72 h, Table 7, read-out: GI50 ± SC (μM) DU145
[5] = 72 h, Table 7, read-out: GI50 ± SC (μM) MCF-7

Compound	GI50 (NCI-60 cell lines)	GI50 (HCT116 [1]; [3])	TOP1 inhibition (Top1)	GI50 (A549)	GI50 (DU145; [4])	GI50 (MCF7)	GI50 (BT-549)	GI50 (HOP-92)	GI50 (SK-MEL-5)	GI50 (ACHN)	GI50 (OVCAR-8)	GI50 (CCRF-CEM)	GI50 (HCT116 [2])	GI50 (OVCAR-3)	GI50 (OVCAR-5)	GI50 (UO-31)	GI50 (M14)	GI50 (EKVX)	GI50 (SW-620)	GI50 (MOLT-4)	other results
CNCCn1c(=O)c2cc(OC)c(OC)cc2c2ccc3cc4c(cc3c21)OCO4 [Compound 50, 2,3-dimethoxy-12-(2-(methylamino)ethyl)-[1,3]dioxolo[4′5′:4,5]benzo[1,2-c]phenanthridin-13(12H)-one]	0.0977 µM	0.036 µM	+++ (+++, between 75% and 95% activity)	0.97 µM	0.002 µM	0.0292 µM	0.202 µM	0.184 µM	0.0909 µM	0.0856 µM	0.132 µM	0.0201 µM	0.0515 µM	0.166 µM	0.183 µM	0.104 µM	0.0581 µM	0.202 µM	0.0658 µM	0.0234 µM	GI50 (HCT116 [1]; drug-resistance panel, read-out: GI50 ± SD (μM) Parental cell line HCT116): 0.036 ± 0.003 µM; GI50 (DU145; read-out: GI50 ± SD (μM) Parental cell line DU-145, drug-resistance panel): 0.002 ± 0.001 µM; GI50 (RXF 393): 0.16 µM; GI50 (NCI-H322M): 0.147 µM; GI50 (NCI-H460): 0.0212 µM; GI50 (HOP-62): 0.0439 µM; GI50 (A549/ATCC): 0.0948 µM; GI50 (HCC-2998): 0.156 µM; GI50 (MCF-7; [5]): 0.09 µM; GI50 (MCF-7; drug-resistance panel, read-out: GI50 ± SD (μM) Parental cell line MCF-7): 0.1 ± 0.001 µM
COc1cc2c(=O)n(CCN)c3c4cc5c(cc4ccc3c2cc1OC)OCO5 [Compound 67, 12-(2-aminoethyl)-2,3-dimethoxy-[1,3]dioxolo[4′,5′:4,5]benzo[1,2-c]phenanthridin-13(12-H)-one]	0.525 µM	0.29 ± 0.019 µM	++ (++, between 50% and 75% activity)	0.98 ± 0.014 µM	0.014 ± 0.001 µM	0.164 µM	0.918 µM	3.56 µM	0.614 µM	0.366 µM	0.93 µM	0.15 µM	0.285 µM	0.826 µM	1.2 µM	0.35 µM	0.324 µM	1.36 µM	0.243 µM	0.0633 µM	GI50 (RXF 393): 0.929 µM; GI50 (NCI-H322M): 0.99 µM; GI50 (NCI-H460): 0.23 µM; GI50 (HOP-62): 0.399 µM; GI50 (A549/ATCC): 0.584 µM; GI50 (HCC-2998): 1.02 µM; GI50 (MCF-7; [5]): 0.1 ± 0.001 µM
